Here are results for 21 compounds from patent US5204352A, “Compounds exhibiting anti-parasitic activity and a method for their use” (The United States of America as represented by the …, priority 1987, dated 1993).

The subject of this test is Trypanosoma rhodesiense. As to the kind of experiment: In vivo trypanocidal activity in infected mice (protocol based on Rane et al.). Details: Activity at dosage, value in parentheses (increase in survival): unit not given here. The protocol: The compounds of the present invention were evaluated biologically in vivo with groups of 5 mice at various dose levels. Unless otherwise indicated, the data are for subcutaneous administration. Dose levels marked with an asterisk are for peritoneal administration in a HEC+T medium. In addition, Table 2 present results of peritoneal administration with substituted quanylhydrazones. The biological evaluation was done according to a standard protocol based on the method described by Rane et al., Amer. J. Trop. Med Hyg. 25:395 (1976). […]

The mark [1] stands for this setting: 106* mg/kg, peritoneal in HEC+T medium (Table I).
[2] abbreviates: 424* mg/kg, peritoneal in HEC+T medium (Table I).
Setting [3] is: 212* mg/kg, peritoneal in HEC+T medium (Table I).

Several values for one entry are separate records, joined by “and”; a condition that tells them apart may be missing. Equal entries are not always repeated.

Turning to `CC(=O)Nc1ccc(-c2cn3ccccc3[n+]2C)cc1` [BJ36718], the Increase in survival is 8.0 days (53 mg/kg, subcutaneous); 4.4 days (106 mg/kg, subcutaneous); 7.0 days under setting [1]; 11.0 days under setting [2]. Further, the “Trypanocidal activity, cures” value reads like this: (53 mg/kg, subcutaneous) 4/5; (212 mg/kg, subcutaneous) 3/5 and 4/5; under setting [1], 7/10; under setting [2], 8/10.

For `CC(=O)Nc1ccc(-c2cn3c([n+]2C)CCCC3)cc1` [BJ51911], the Increase in survival runs as follows: (26.5 mg/kg, subcutaneous) 1.2 days; (53 mg/kg, subcutaneous) 6.4 days; (106 mg/kg, subcutaneous) 7.4 days. Also, the “Trypanocidal activity, cures” value is on record as 1/10 (26.5 mg/kg, subcutaneous) and 3/10 (106 mg/kg, subcutaneous).

Consider `C=CC[n+]1c(-c2ccc(NC(C)=O)cc2)cn2ccccc21` [BJ58296], for which, for the setting “26.5 mg/kg, subcutaneous”, the Increase in survival is listed as 5.0 days and the “Trypanocidal activity, cures” value is on record as 7/10.

In the case of `CC(=O)Nc1ccc(-c2cn3ccc4ccccc4c3[n+]2C)cc1` [BJ83235], under “53 mg/kg, subcutaneous”, the Increase in survival turned out to be 1.7 days and the “Trypanocidal activity, cures” value is given as 1/5. In addition, under “212 mg/kg, subcutaneous”, the Increase in survival is reported as 2.9 days and the “Trypanocidal activity, cures” value is reported as 4/5.

Consider `CC(=O)Nc1ccc(-c2cn3c4ccccc4ccc3[n+]2C)cc1` [BJ83244], for which, under “212 mg/kg, subcutaneous”, the Increase in survival was 8.4 days and the “Trypanocidal activity, cures” value is recorded as 3/5.

For the compound `CC(=O)Nc1ccc(-c2cn3cc(I)ccc3[n+]2C)cc1` [BJ83306], the Increase in survival stood at 2.3 days (106 mg/kg, subcutaneous); 3.9 days (212 mg/kg, subcutaneous); 6.5 days (424 mg/kg, subcutaneous). For the same compound, the “Trypanocidal activity, cures” value runs as follows: (106 mg/kg, subcutaneous) 3/10; (212 mg/kg, subcutaneous) 1/5; (424 mg/kg, subcutaneous) 4/10.

Take `CC(=O)Nc1ccc(-c2cn3ccccc3[n+]2C)cc1` [BJ83315]: the Increase in survival reads like this: (106 mg/kg, subcutaneous) 3.7 days; (212 mg/kg, subcutaneous) 6.4 days; (424 mg/kg, subcutaneous) 2.9 days. Further, the “Trypanocidal activity, cures” value is, setting by setting: (212 mg/kg, subcutaneous) 3/5; (424 mg/kg, subcutaneous) 9/10.

For `CC(=O)Nc1ccc(-c2cn3cc(C)ccc3[n+]2C)cc1` [BJ84938], the Increase in survival was 1.3 days (106 mg/kg, subcutaneous); 5.9 days (212 mg/kg, subcutaneous); 8.5 days (424 mg/kg, subcutaneous). For the same compound, the “Trypanocidal activity, cures” value by setting is: (106 mg/kg, subcutaneous) 1/10; (212 mg/kg, subcutaneous) 1/5; (424 mg/kg, subcutaneous) 7/10.

For the compound `C[n+]1c(-c2ccc(C(N)=NO)cc2)cn2ccccc21` [BJ84974], the Increase in survival runs as follows: (13.3 mg/kg, subcutaneous) 3.1 days; (26.5 mg/kg, subcutaneous) 1.6 days; (106 mg/kg, subcutaneous) 9.9 days. Also, the “Trypanocidal activity, cures” value (26.5 mg/kg, subcutaneous) is 2/10; the “Trypanocidal activity, cures” value (53 mg/kg, subcutaneous) was 5/5; the “Trypanocidal activity, cures” value (106 mg/kg, subcutaneous) was 9/10; the “Trypanocidal activity, cures” value (212 mg/kg, subcutaneous) is 5/5.

Take `CC(=O)Nc1ccc(-c2cn3c(C)cc(C)cc3[n+]2C)cc1` [BJ90703]: the Increase in survival runs as follows: (26 mg/kg, subcutaneous) 8.9 days; (106 mg/kg, subcutaneous) 2.9 days; (424 mg/kg, subcutaneous) 9.4 days; under setting [2], 3.4 days. Further, the “Trypanocidal activity, cures” value by setting is: (26 mg/kg, subcutaneous) 1/5; (106 mg/kg, subcutaneous) 4/5; (424 mg/kg, subcutaneous) 3/5; under setting [2], 1/5.

Turning to `C[n+]1c(-c2ccc(C=NO)cc2)cn2ccccc21` [BJ90712], where the note is “106 mg/kg, subcutaneous”, the Increase in survival is 4.2 days and the “Trypanocidal activity, cures” value was 2/5.

Take `C[n+]1c(-c2ccc(C=NNC(N)=S)cc2)cn2ccccc21` [BJ90721]: the Increase in survival was determined as 4.4 days (26 mg/kg, subcutaneous); 7.8 days (53 mg/kg, subcutaneous); 7.5 days (106 mg/kg, subcutaneous); 18.0 days (212 mg/kg, subcutaneous); 1.9 days under setting [2]. Further, the “Trypanocidal activity, cures” value is, setting by setting: (53 mg/kg, subcutaneous) 1/5; (106 mg/kg, subcutaneous) 3/5; (212 mg/kg, subcutaneous) 4/5; (424 mg/kg, subcutaneous) 5/5; under setting [2], 1/10.

On to `C[n+]1c(-c2ccc(C=NNC(N)=O)cc2)cn2ccccc21` [BJ90730], for which the Increase in survival reads like this: (26 mg/kg, subcutaneous) 7.7 days; (106 mg/kg, subcutaneous) 10.9 days; under setting [1], 1.9 days; under setting [2], 4.8 days. In addition, the “Trypanocidal activity, cures” value (26 mg/kg, subcutaneous) is recorded as 1/5; the “Trypanocidal activity, cures” value (106 mg/kg, subcutaneous) was 4/5; the “Trypanocidal activity, cures” value under setting [1] is reported as 1/10; the “Trypanocidal activity, cures” value under setting [2] is given as 3/10.

In the case of `C[n+]1c(-c2ccc(C=NNC(=N)N)cc2)cn2ccccc21` [BJ90749], the Increase in survival amounted to 2.5 days (0.21 mg/kg, subcutaneous); 5.4 days (0.42 mg/kg, subcutaneous); 6.2 days (0.83 mg/kg, subcutaneous). The “Trypanocidal activity, cures” value reads like this: (0.21 mg/kg, subcutaneous) 1/5; (0.42 mg/kg, subcutaneous) 2/10; (0.83 mg/kg, subcutaneous) 8/10; (1.6 mg/kg, subcutaneous) 10/10; (3.3 mg/kg, subcutaneous) 5/5; (6.6 mg/kg, subcutaneous) 5/5. In addition, where the note is “13.3 mg/kg, subcutaneous”, the “Trypanocidal activity, cures” value is 10/10. Moreover, under “13 mg/kg, peritoneal (Table 2)”, the “Activity at dosage, value in parentheses (increase in survival)” value came out at 4.0.

With `COC(=O)c1ccc2n(c1)cc(-c1ccc(NC(C)=O)cc1)[n+]2C` [BJ90758], the Increase in survival (106 mg/kg, subcutaneous) is given as 4.2 days. Moreover, where the note is “424 mg/kg, subcutaneous”, the Increase in survival was 4.2 days and the “Trypanocidal activity, cures” value was 2/10.

On to `C[n+]1c(-c2ccc(C=NNc3ncn[nH]3)cc2)cn2ccsc21` [BK2403S], for which the Increase in survival came out at 5.0 days (6.65 mg/kg, subcutaneous); 5.0 days (13.3 mg/kg, subcutaneous); 7.3 days (26.5 mg/kg, subcutaneous); 12.5 days (53 mg/kg, subcutaneous); 7.7 days (106 mg/kg, subcutaneous); 5.0 days (212 mg/kg, subcutaneous). The “Trypanocidal activity, cures” value is, setting by setting: (6.65 mg/kg, subcutaneous) 4/5; (13.3 mg/kg, subcutaneous) 6/10; (26.5 mg/kg, subcutaneous) 12/15; (53 mg/kg, subcutaneous) 3/5; (106 mg/kg, subcutaneous) 7/10; (212 mg/kg, subcutaneous) 3/5.

Consider `C=CC[n+]1c(-c2ccc(NC(C)=O)cc2)cn2cc(C)ccc21` [BK02557], for which, under setting [2], the Increase in survival amounted to 3.8 days and the “Trypanocidal activity, cures” value was 2/10.

`C=CC[n+]1c(-c2ccc(N(CC)C(C)=O)cc2)cn2ccccc21` [BK02566]: the Increase in survival under setting [1] amounted to 2.8 days, the Increase in survival under setting [3] came out at 4.7 days and the Increase in survival under setting [2] amounted to 9.9 days. The “Trypanocidal activity, cures” value under setting [1] is given as 1/10; the “Trypanocidal activity, cures” value under setting [3] is 1/5; the “Trypanocidal activity, cures” value under setting [2] is given as 5/10.

With `C[n+]1c(-c2ccc(C(N)=S)cc2)cn2ccccc21` [BK11743], the Increase in survival worked out at 2.7 days (6.65 mg/kg, subcutaneous); 3.3 days (13.3 mg/kg, subcutaneous); 4.0 days (26 mg/kg, subcutaneous); 3.2 days (106 mg/kg, subcutaneous); 17.0 days (212 mg/kg, subcutaneous). The “Trypanocidal activity, cures” value runs as follows: (6.65 mg/kg, subcutaneous) 2/10; (13.3 mg/kg, subcutaneous) 1/10; (26 mg/kg, subcutaneous) 3/15; (53 mg/kg, subcutaneous) 5/5; (106 mg/kg, subcutaneous) 5/10; (212 mg/kg, subcutaneous) 4/5.

Consider `C=CC[n+]1c(-c2ccc(C=NNC(=N)N)cc2)cn2ccccc21` [BK11770], for which the “Trypanocidal activity, cures” value (13.3 mg/kg, subcutaneous) is recorded as 5/5.

With `C[n+]1c(-c2ccc(C=NNC(=N)N)cc2)cn2cc(Cl)ccc21` [BK13069], the “Trypanocidal activity, cures” value (6.65 mg/kg, subcutaneous) is 5/5.
